One data set has as its system rats. Particulars: rats, small doses; partially resistant to Flumazenil, sensitive to PK-11195; cited from earlier work.
For data set [1], the system named is MBR. Particulars: in words; cited from earlier work.
The next data set relates to GABAA receptor. Conditions: in words; cited from earlier work.
Data set [2] deals with MBR. Conditions: in words; cited from earlier work. The source holds these as a separate data set.
The subject of a further data set is GABAA receptors. Particulars: in words; cited from earlier work.
The next data set has as its system Sprague Dawley rats. Description: Elevated X maze test. It is filed as in vivo, Sprague Dawley rat. Conditions: for Entries in open arms, test after 10 min injection / Entries in open arms, test after 20 min injection / Entries in open arms, test after 30 min injection: rats; for anxiolytic potency ranking / behavioral output of rats in the elevated X maze test: in words. On the procedure:
The elevated X maze is a behavioral test to detect anxiolytic drugs in rodents. […] The plus-maze consists of two open arms (43×8 cm) and two similarly sized enclosed arms with 9 cm high walls, arranged so that the arms of the same type are opposite each other. There is a central square of 8 cm. The apparatus is elevated to a height of 10 cm and each arm is divided into 3 squares.
Sprague Dawley rats weighing 200-250 gr. were housed in a room with a 12 hour light: 12 hour dark cycle and were allowed free access to food and water. After an i.v. injection of different indole derivatives, the rats were kept separated for 10, 20 or 30 minutes before testing. The testing period commenced when each animal was placed onto the central square of the maze. The number of entries in each arm was then recorded for 5 minutes. The maze was cleaned with water after each trial. The number of entries in the open arms provided a measure of anxiolytic activity of the drugs.

Data set [3] can be described thus: Sedation and ataxia in rats. Conditions: rat, in vivo, ratio of doses, read-out: anxiolytic doses lower than the doses that produce sedation and ataxia.
The target of data set [4] is T1, MBR (mitochondrial benzodiazepine recognition site) (Rattus norvegicus, UniProt P16257).
T1 construct: Brain and adrenal glands were removed and homogenized with Polytron; from tissue; host or cells: mitochondrial fraction of Sprague Dawley rat brain and adrenal glands
Description: Displacement of ^3 H-PK11195 from mitochondrial BZD recognition site (MBR). Conditions: for IC50: displacement of 1 nM ^3 H-PK11195, rat mitochondria, range in parentheses; for ^3 H-PK11195 / ^3 H-RO5-4864: ratio of the two IC50 values. It is filed as binding, Sprague Dawley rat. On the procedure:
(§1) Mitochondrial Preparation: Sprague Dawley rats (200-250 gr.) were killed by decapitation. Brain and adrenal glands were removed and homogenized with Polytron for 15 minutes in ice cold buffer (10 mM Na/KPO4, 0.32M sucrose, pH 7.4). The homogenate was centrifuged for 15 minutes at 6,500 xg at 4° C. The resulting supernatant was centrifuged for 15 minutes at […] at 4° C. The pellet was suspended in buffer (20 times) by gentle homogenization and centrifuged at 10,000 xg at 4° C. for 15 minutes. The washed mitochondrial pellet was stored at -70° C.
(§2) For the binding assay the mitochondrial fraction was diluted with 50 mM Na/KPO4 buffer (pH 7.4) to give a final protein concentration of […] in 100 μl buffer. This suspension was incubated with 1 nM of ^3 H PK-11195 or ^3 H RO 5-4864 (50 μl) with or without 10/μM unlabeled PK-11195 or RO 5-4864 to assess the extent of total and non-specific binding. Different amounts of indole derivatives were added to the incubation medium in a volume of 50 μl. After incubation for 60 minutes at 4° C., samples were filtered and the radioactivity was measured in a scintillation counter.

For data set [5], the target named is T1, MBR (mitochondrial benzodiazepine recognition site). The data set can be described thus: Displacement of ^3 H-RO5-4864 from mitochondrial BZD recognition site (MBR). It is filed as binding, Sprague Dawley rat. Particulars: displacement of 1 nM ^3 H-RO5-4864, rat mitochondria; range in parentheses. How it is done:
as §1, §2

Data set [6] has as its target T2, ^3 H-ZOLPIDEM binding (crude synaptic membrane) (Rattus norvegicus, UniProt P18508+P62813).
T2 construct: from tissue; host or cells: crude synaptic membranes of Sprague Dawley rat cerebellum
The data set can be described thus: ^3 H-ZOLPIDEM binding, crude synaptic membranes. Conditions: 2 nM ^3 H-ZOLPIDEM, rat cerebellum membranes. On the set-up: species or system Sprague Dawley rat. How it is done: (§3) Crude Synaptic Membrane Preparation: Sprague Dawley rats (200-250 gr.) were killed by decapitation. The cerebella were removed and incubated for 20 minutes in ice cold double distilled water after homogenization with Polytron. The homogenate was centrifuged at 18,000 xg at 4° C. for 10 minutes. The pellet was suspended in ice-cold buffer 50 mM Na/KPO4(pH 7.4) and centrifuged at 18,000 xg at 4° C. for 10 minutes. After two other centrifugations, the membranes were suspended in 5 ml of buffer and the proteins were measured.
(§4) The membranes were diluted with 50 mM Na/KPO4 buffer (pH 7.4) to a concentration of 150 μg of protein/ml, and 150 μl aliquots of the suspension were incubated with 50 μl of the different ligands to be tested: ^3 H-ZOLPIDEM(2 nM), ^3 H-FLUMAZENIL (2 nM), ^3 H-GABA(10 nM), ^3 H-MK 801(5 nM), ^3 H-KETANSERIN(1 nM), ^3 H-GLYCINE(20 nM), ^3 H-SPIPERONE(1 nM), ^3 H-AMPA(10 nM), ^3 H-3-PPP(1 nM), and ^3 H-NALOXONE(1 nM). Non-specific binding was assessed by displacing with 10 to 1000/μM of cold ligand. The different indole derivatives were added in a volume of 50 μl in a concentration varying from 10^-9 to 10^-3 M. The results are reported in Table I hereinbelow.

Data set [7] has as its target T3, BZD binding site located on the GABAA receptor (Rattus norvegicus, UniProt P18508+P62813).
T3 construct: The cerebella were removed and incubated for 20 minutes in ice cold double distilled water; from tissue; host or cells: crude synaptic membranes of Sprague Dawley rat cerebellum
The data set can be described thus: ^3 H-FLUMAZENIL binding, crude synaptic membranes. The arrangement: species or system Sprague Dawley rat. Conditions: 2 nM ^3 H-FLUMAZENIL, rat cerebellum membranes. How it is done:
as §3
The membranes were diluted with 50 mM Na/KPO4 buffer (pH 7.4) to a concentration of 150 μg of protein/ml, and 150 μl aliquots of the suspension were incubated with 50 μl of the different ligands to be tested: ^3 H-ZOLPIDEM(2 nM), ^3 H-FLUMAZENIL (2 nM), ^3 H-GABA(10 nM), ^3 H-MK 801(5 nM), ^3 H-KETANSERIN(1 nM), ^3 H-GLYCINE(20 nM), ^3 H-SPIPERONE(1 nM), ^3 H-AMPA(10 nM), ^3 H-3-PPP(1 nM), and ^3 H-NALOXONE(1 nM). Non-specific binding was assessed by displacing with 10 to 1000/μM of cold ligand.

The target of data set [8] is ^3 H-GABA binding (crude synaptic membrane). The data set can be described thus: ^3 H-GABA binding, crude synaptic membranes. On the set-up: species or system Sprague Dawley rat. Conditions: 10 nM ^3 H-GABA, rat cerebellum membranes. On the procedure:
as §3, §4

For data set [9], the system named is mitochondrial pregnenolone formation, C6-2B glioma cells. The data set can be described thus: Pregnenolone formation in glial mitochondria (C6-2B glioma cells). It is filed as biochemical. Conditions: for Effective concentration, maximal / EC50: C6 glial cell mitochondria, 15 minutes at 37° C.; for EC50: read-out: Effective concentration, 50%; for Stimulation %: pregnenolone formation, increase over the control. On the procedure: The mixture was preincubated for 5 minutes at 37° C. The incubation mixture was extracted with 5 ml chloroform/methanol (2:1, vol/vol), and the organic phase was evaporated to dryness. Pregnenolone was measured by a specific radioimmunoassay using an antibody obtained from Radioassay Systems Laboratories, Carson, Calif.

T2 sequence (P62813 28-455): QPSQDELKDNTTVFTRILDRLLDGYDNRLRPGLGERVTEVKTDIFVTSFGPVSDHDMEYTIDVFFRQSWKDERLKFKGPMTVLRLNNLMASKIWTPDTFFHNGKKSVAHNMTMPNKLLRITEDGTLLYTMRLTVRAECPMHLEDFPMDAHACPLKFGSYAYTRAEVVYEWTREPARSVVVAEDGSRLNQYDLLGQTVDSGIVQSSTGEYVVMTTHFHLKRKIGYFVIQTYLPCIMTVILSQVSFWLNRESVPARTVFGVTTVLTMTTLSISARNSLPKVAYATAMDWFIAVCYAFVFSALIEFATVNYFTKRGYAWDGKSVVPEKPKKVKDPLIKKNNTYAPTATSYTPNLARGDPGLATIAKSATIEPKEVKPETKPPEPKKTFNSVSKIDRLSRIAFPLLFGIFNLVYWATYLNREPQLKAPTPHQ
T2 sequence (P18508 39-466): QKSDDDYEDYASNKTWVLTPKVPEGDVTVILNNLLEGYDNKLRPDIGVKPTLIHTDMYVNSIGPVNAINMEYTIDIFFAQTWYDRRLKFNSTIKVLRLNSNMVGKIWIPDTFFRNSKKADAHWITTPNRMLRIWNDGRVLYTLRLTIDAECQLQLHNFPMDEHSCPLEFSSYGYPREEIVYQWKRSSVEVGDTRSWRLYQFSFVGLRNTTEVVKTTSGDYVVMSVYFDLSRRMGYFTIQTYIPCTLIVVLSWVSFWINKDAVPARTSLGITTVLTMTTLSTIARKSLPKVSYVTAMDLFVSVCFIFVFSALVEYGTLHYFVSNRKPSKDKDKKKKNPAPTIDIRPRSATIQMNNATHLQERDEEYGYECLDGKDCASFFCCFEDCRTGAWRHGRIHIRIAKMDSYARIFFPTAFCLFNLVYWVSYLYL
T3 sequence (P62813 28-455): as the sequence (P62813 28-455) above
T3 sequence (P18508 39-466): as the sequence (P18508 39-466) above

As to `CN1C(=O)CN=C(c2ccc(Cl)cc2)c2cc(Cl)ccc21` [4-Cl-Diazepam], the conflict response result in the data set with rats is “proconflict response”. For the same molecule, the “affinity for the MBR” value with MBR [1] is on record as “high affinity”. The “binding to the GABAA receptor / BZD recognition sites on GABAA receptors” value in the data set on GABAA receptor is reported as “binds to the GABAA receptor”. Besides, the “cholesterol influx into mitochondria and formation of pregnenolone” value in the data set on MBR [2] was “facilitates cholesterol influx into mitochondria and the formation of pregnenolone”.
Take `CC(=O)[C@H]1CC[C@H]2[C@@H]3CC=C4C[C@@H](OS(=O)(=O)O)CC[C@]4(C)[C@H]3CC[C@]12C` [pregnenolone sulphate]: the “modulation of GABA action” value in the data set with GABAA receptors is “negatively modulate”.
On to `C[C@]12CC[C@@H](O)C[C@@H]1CC[C@@H]1[C@@H]2CC[C@]2(C)[C@@H](C(=O)CO)CC[C@@H]12` [3α,21-dihydroxy-5α-pregnan-20-one(THDOC), 3α,21-dihydroxy-5α-pregnan-20-one], for which, in the data set on GABAA receptors, the “modulation of GABA action” value was “positively modulate”.
`CC(=O)[C@H]1CC[C@H]2[C@@H]3CC[C@H]4C[C@H](O)CC[C@]4(C)[C@H]3CC[C@]12C` [3-α-hydroxy-5α-pregnan-20-one(3-αOH-DHP), 3-α-hydroxy-5α-pregnan-20-one]: the “modulation of GABA action” value in the data set on GABAA receptors is recorded as “positively modulate”.
With `CCCCCCN(CCCCCC)C(=O)Cc1c(-c2ccc(Cl)cc2)[nH]c2ccc(Cl)cc12` [compound 43], in the data set on Sprague Dawley rats (0.5 mg/kg i.v.), the “Entries in open arms, test after 10 min injection” value (“Entries … after 10 min injection” below) is listed as 4; the “Entries in open arms, test after 20 min injection” value (“Entries … after 20 min injection” below) worked out at 2; the “Entries in open arms, test after 30 min injection” value (“Entries … after 30 min injection” below) was 1. Besides, in the data set with Sprague Dawley rats, the anxiolytic potency ranking entry is given as “most potent anxiolytic drugs” and the “behavioral output of rats in the elevated X maze test” value (“behavioral output of rats” below) is “increase the behavioral output”. Moreover, the selectivity ratio in [3] fell in the range of 100 to 500.
Broadly, the IC50 is the concentration that gives 50% inhibition. As for `CCCCCCNC(=O)Cc1c(-c2ccccc2)[nH]c2ccccc12` [Compound No. 13], the IC50 was 0.0575 µM in [4]; 0.0325 µM in data set [5]; greater than 1 µM in data set [6]; greater than 1 µM in data set [7]; greater than 1 µM in [8]. Moreover, the “^3 H-PK11195 / ^3 H-RO5-4864” value in data set [4] is 1.8. Moreover, in the data set with Sprague Dawley rats (20 mg/kg i.v.), the “Entries … after 10 min injection” value is recorded as 2. Besides, in the data set with Sprague Dawley rats (20 mg/kg i.v.), the “Entries … after 20 min injection” value turned out to be 2. Further, the “Entries … after 30 min injection” value in the data set with Sprague Dawley rats (20 mg/kg i.v.) stood at 3. Further, the “behavioral output of rats” value with Sprague Dawley rats is recorded as “increase the behavioral output”.
`CCCN(CCC)C(=O)Cc1c(-c2ccc(F)cc2)[nH]c2ccccc12` [compound 20]: in [4], the IC50 came out at 0.1 µM and the “^3 H-PK11195 / ^3 H-RO5-4864” value is listed as 2. Also, the IC50 in data set [5] turned out to be 0.05 µM. The same molecule displayed an IC50 in data set [7] greater than 1 µM. This molecule also gave a 50% inhibitory concentration (IC50) in data set [8] greater than 1 µM. Further, in [9], the “Effective concentration, maximal” value is recorded as 10^-9 M; the EC50 came to 0.00033 µM; the Stimulation % amounted to 183%. Moreover, in the data set on Sprague Dawley rats (20 mg/kg i.v.), the “Entries … after 10 min injection” value was 3; the “Entries … after 20 min injection” value is 2; the “Entries … after 30 min injection” value was determined as 6. The “behavioral output of rats” value with Sprague Dawley rats is reported as “increase the behavioral output”.
`CCCN(CCC)C(=O)Cc1c(-c2ccccc2)[nH]c2ccccc12` [Compound No. 2]: in data set [4], the IC50 is 0.0325 µM and the “^3 H-PK11195 / ^3 H-RO5-4864” value was determined as 1.4. Also, the IC50 in data set [5] was 0.0225 µM. The molecule further returned an IC50 in data set [6] greater than 1 µM. This molecule gave an IC50 in [7] greater than 1 µM. Further, the IC50 in data set [8] was greater than 1 µM. Also, in data set [9], the “Effective concentration, maximal” value was 10^-9 M; the EC50 turned out to be 0.00033 µM; the Stimulation % worked out at 200%. Moreover, in the data set on Sprague Dawley rats (20 mg/kg i.v.), the “Entries … after 10 min injection” value turned out to be 0; the “Entries … after 20 min injection” value is listed as 0; the “Entries … after 30 min injection” value amounted to 0. In the data set with Sprague Dawley rats (200 mg/kg i.v.), the “Entries … after 10 min injection” value is 4; the “Entries … after 20 min injection” value was 0; the “Entries … after 30 min injection” value is listed as 0. The “behavioral output of rats” value in the data set on Sprague Dawley rats is recorded as “increase the behavioral output”.
Turning to `CCCCCCN(CCCCCC)C(=O)Cc1c(-c2ccc(F)cc2)[nH]c2ccccc12` [compound 27], in [4], the IC50 worked out at 0.018 µM and the “^3 H-PK11195 / ^3 H-RO5-4864” value is reported as 0.9. Further, the IC50 in data set [5] amounted to 0.02 µM. The molecule also registered an IC50 in data set [7] greater than 1 µM. For the same molecule, the half-maximal inhibitory concentration (IC50) in [8] was greater than 1 µM. In data set [9], the “Effective concentration, maximal” value is 10^-7 M; the EC50 is 0.0033 µM; the Stimulation % worked out at 300%. In addition, in the data set on Sprague Dawley rats (0.5 mg/kg i.v.), the “Entries … after 10 min injection” value is recorded as 5; the “Entries … after 20 min injection” value is given as 2; the “Entries … after 30 min injection” value turned out to be 1. Besides, in the data set on Sprague Dawley rats, the anxiolytic potency ranking result is reported as “most potent anxiolytic drugs” and the “behavioral output of rats” value is recorded as “increase the behavioral output”. Besides, the selectivity ratio in [3] lay within 100 to 500.
For `CCCN(CCC)C(=O)Cc1c(-c2ccc(Cl)cc2)[nH]c2ccccc12` [compound 5], the IC50 in [4] was 0.0285 µM; in data set [5], 0.0255 µM; in [6], greater than 1 µM; in data set [7], greater than 1 µM; in [8], greater than 1 µM. For the same molecule, in data set [4], the “^3 H-PK11195 / ^3 H-RO5-4864” value was 1.1.

(Values after US5206382A, “Indole derivatives, pharmaceutical compositions and methods of treating neurological and psychiatric disorders” (Fidia Georgetown Institute for the Neurosciences, priority 1991, dated 1993).)
